The target of data set [1] is T1, Muscarinic acetylcholine receptor M4 (Homo sapiens, UniProt P08173).
T1 sequence (P08173 whole entry): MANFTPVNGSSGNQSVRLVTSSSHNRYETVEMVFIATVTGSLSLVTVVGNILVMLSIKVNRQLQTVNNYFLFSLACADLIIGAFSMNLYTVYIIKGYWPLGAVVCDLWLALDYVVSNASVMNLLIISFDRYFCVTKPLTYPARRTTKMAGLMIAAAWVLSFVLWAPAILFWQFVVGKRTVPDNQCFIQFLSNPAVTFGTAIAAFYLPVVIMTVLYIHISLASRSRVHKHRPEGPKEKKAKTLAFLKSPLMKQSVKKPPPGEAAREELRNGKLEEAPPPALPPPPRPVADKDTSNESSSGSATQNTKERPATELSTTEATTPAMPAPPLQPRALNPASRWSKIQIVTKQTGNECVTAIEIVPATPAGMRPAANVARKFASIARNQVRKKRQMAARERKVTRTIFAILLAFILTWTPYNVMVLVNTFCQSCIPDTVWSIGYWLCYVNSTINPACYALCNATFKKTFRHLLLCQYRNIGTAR
The class given is cell membranes, CHO-K1, Membrane.

In data set [2] the target is T2, Neuropeptide Y receptor type 1 (Homo sapiens, UniProt P25929).
T2 sequence (P25929 whole entry): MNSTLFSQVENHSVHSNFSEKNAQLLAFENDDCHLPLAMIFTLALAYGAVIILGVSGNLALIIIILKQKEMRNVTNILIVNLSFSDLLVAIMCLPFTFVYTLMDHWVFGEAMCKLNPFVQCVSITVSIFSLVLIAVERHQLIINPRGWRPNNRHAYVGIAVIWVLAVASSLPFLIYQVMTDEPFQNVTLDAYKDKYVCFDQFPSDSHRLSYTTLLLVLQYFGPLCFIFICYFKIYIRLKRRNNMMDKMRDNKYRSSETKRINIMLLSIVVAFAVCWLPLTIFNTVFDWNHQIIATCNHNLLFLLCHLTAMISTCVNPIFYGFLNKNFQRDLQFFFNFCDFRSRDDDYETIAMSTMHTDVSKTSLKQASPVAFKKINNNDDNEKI
The class given is cell membranes, Membrane. To be noted: sk-n-mc.

Data set [3] has as its target T3, Nitric oxide synthase, inducible (Mus musculus, UniProt P29477).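 Also: inhibition of iNOS enzyme activity measured with L-arginine as substrate.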
T3 sequence (P29477 whole entry): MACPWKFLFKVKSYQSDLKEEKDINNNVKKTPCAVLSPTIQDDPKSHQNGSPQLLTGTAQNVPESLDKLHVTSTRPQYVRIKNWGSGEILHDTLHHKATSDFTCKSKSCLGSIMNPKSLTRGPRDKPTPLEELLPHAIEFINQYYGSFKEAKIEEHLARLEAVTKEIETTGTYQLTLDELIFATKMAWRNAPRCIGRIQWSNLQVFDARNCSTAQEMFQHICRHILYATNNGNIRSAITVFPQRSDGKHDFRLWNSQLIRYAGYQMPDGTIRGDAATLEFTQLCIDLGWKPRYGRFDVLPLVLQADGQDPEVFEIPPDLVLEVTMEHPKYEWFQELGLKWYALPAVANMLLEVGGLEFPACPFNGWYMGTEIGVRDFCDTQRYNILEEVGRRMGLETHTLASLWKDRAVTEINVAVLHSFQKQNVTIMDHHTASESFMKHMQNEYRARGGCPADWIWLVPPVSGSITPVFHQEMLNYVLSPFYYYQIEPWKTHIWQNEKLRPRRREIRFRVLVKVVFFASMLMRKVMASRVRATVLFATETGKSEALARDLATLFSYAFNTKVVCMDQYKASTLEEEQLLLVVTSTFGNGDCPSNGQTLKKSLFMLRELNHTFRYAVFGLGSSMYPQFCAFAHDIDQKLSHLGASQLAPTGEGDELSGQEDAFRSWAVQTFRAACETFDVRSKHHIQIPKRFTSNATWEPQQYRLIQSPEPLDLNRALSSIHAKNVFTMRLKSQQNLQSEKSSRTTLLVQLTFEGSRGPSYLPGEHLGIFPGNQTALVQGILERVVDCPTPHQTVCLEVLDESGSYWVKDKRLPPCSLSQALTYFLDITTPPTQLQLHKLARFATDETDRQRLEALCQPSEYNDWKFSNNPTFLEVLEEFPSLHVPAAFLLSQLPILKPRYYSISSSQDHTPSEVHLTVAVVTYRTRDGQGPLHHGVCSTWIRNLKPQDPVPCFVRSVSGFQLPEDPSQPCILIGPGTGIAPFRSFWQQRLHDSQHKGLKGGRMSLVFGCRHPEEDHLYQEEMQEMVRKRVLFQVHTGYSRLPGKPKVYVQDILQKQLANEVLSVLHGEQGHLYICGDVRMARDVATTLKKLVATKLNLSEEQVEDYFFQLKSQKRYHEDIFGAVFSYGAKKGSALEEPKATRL
On the set-up: species or system Escherichia coli.

Data set [4] deals with Delta-type opioid receptor (Homo sapiens, UniProt P41143). Format: cell membranes, HEK293, Membrane. The settings on record: hek293.
Another data set has as its target T4, Adenosine receptor A3 (Homo sapiens, UniProt P0DMS8).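 Also: radioligand binding assay with AB-MECA serving as the labeled ligand.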
T4 sequence (P0DMS8 whole entry): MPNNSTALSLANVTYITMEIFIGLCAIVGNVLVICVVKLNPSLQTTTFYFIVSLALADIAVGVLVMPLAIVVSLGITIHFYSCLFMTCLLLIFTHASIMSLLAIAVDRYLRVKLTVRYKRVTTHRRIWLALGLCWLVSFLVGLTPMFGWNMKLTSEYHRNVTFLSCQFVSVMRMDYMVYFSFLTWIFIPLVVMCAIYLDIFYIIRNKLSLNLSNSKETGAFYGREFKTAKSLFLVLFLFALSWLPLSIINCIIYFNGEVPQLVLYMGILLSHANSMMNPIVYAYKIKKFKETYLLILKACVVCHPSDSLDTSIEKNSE
The class given is cell membranes, CHO-K1, Membrane.

Another data set deals with Cytochrome P450 3A4 (Homo sapiens, UniProt P08684). To be noted: bti-tn-5b1-4.
A further data set concerns the target Estrogen receptor beta (Homo sapiens, UniProt Q92731). To be noted: sf9.

Structures are written as SMILES.
Also: in other assays of this panel Not Active means under 50% inhibition at 10 µM.

Sequence of Delta-type opioid receptor (P41143 whole entry): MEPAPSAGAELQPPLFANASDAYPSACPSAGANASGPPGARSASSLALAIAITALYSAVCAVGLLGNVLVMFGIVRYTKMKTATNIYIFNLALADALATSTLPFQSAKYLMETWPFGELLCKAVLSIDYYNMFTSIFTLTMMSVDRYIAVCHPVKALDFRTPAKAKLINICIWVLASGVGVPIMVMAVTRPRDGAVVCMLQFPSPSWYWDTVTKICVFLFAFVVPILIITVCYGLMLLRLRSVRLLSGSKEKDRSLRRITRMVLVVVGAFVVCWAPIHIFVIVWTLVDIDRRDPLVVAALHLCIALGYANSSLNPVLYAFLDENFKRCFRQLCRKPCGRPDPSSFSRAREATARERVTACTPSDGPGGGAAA
Sequence of Cytochrome P450 3A4 (P08684 whole entry): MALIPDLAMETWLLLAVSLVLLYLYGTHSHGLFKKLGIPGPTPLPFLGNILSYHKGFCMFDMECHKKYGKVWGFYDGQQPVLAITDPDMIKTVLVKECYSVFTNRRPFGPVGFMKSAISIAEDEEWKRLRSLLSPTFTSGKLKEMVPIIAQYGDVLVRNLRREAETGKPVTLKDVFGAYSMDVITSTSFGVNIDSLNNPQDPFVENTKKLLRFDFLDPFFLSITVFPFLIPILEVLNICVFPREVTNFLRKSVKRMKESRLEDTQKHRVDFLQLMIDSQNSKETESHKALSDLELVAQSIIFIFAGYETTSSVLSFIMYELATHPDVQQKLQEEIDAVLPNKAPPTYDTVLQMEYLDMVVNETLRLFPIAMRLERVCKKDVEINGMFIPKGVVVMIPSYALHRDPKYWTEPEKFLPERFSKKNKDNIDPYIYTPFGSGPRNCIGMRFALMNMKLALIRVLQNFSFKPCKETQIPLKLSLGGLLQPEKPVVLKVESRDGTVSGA
Sequence of Estrogen receptor beta (Q92731 whole entry): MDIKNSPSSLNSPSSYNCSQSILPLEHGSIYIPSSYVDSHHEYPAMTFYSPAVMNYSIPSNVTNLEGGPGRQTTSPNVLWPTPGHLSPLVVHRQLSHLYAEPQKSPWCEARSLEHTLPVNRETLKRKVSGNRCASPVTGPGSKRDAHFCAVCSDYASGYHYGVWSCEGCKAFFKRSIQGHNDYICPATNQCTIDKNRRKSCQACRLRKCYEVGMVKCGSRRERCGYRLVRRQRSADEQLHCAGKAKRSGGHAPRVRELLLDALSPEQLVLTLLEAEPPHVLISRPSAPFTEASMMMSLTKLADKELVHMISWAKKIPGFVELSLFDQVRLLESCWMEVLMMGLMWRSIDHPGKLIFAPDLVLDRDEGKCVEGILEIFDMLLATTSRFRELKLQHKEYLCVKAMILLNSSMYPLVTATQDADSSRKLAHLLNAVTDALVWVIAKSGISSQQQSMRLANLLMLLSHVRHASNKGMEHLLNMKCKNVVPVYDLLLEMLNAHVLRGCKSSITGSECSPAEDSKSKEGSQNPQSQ

The IC50 is the concentration that inhibits the measured activity by half. A word on the Ki: it is a dissociation constant, usually derived from enzyme kinetics or from competition with a known ligand. Consider `COc1ccccc1C(=O)N1CCC(Cc2ccccc2)CC1`, for which the IC50 result (in data set [1] (cho-k1); in data set [2]; in data set [3]; in data set [4]; on Adenosine receptor A3 (cho-k1); at Cytochrome P450 3A4) was “Not Active” each time. Moreover, the IC50 result at Estrogen receptor beta was “Not Active”. Also, the Ki result on Cytochrome P450 3A4 is listed as “Not Active”.
`Cc1ccccc1C(=O)N1CCC(Cc2ccccc2)CC1`: the IC50 entry (in data set [1] (cho-k1); in data set [2]; in data set [3]; in data set [4]; against Adenosine receptor A3 (cho-k1); against Cytochrome P450 3A4) was “Not Active” in each case. Also, the half-inhibitory concentration (IC50) entry at Estrogen receptor beta was “Not Active”. Besides, the Ki result on Cytochrome P450 3A4 is listed as “Not Active”.
With `O=C1CC[C@H](N2C(=O)c3ccccc3C2=O)C(=O)N1`, the IC50 entry (in data set [1] (cho-k1); in data set [2]; in data set [3]; in data set [4]; against Adenosine receptor A3 (cho-k1); against Cytochrome P450 3A4) was “Not Active” throughout. In addition, the IC50 result on Estrogen receptor beta was “Not Active”. In addition, the Ki result at Cytochrome P450 3A4 is recorded as “Not Active”.
For `N=C(Nc1ccccc1)Nc1ccccc1`, the IC50 result (in data set [1] (cho-k1); in data set [2]; in data set [3]; in data set [4]; on Adenosine receptor A3 (cho-k1); against Cytochrome P450 3A4) was “Not Active” each time. The IC50 entry against Estrogen receptor beta is reported as “Not Active”. Further, the Ki entry at Cytochrome P450 3A4 is “Not Active”.
`O=NN(CCCl)C(=O)NCCCl` [CARMUSTINE]: the IC50 entry (in data set [1] (cho-k1); in data set [2]; in data set [3]; in data set [4]; against Adenosine receptor A3 (cho-k1); against Estrogen receptor beta) was “Not Active” each time.
For the compound `CC1=C(C(=O)O)N2C(=O)[C@@H](NC(=O)[C@H](N)c3ccccc3)[C@H]2SC1` [CEPHALEXIN ANHYDROUS], the IC50 result (in data set [1] (cho-k1); in data set [2]; in data set [3]; in data set [4]; on Adenosine receptor A3 (cho-k1); at Estrogen receptor beta) was “Not Active” throughout.
`O=C(N[C@H](CO)[C@H](O)c1ccc([N+](=O)[O-])cc1)C(Cl)Cl` [CHLORAMPHENICOL]: the IC50 entry (in data set [1] (cho-k1); in data set [2]; in data set [3]; in data set [4]; on Adenosine receptor A3 (cho-k1); at Estrogen receptor beta) was “Not Active” in each case.
Regarding `CCOC(=O)C(C)(C)Oc1ccc(Cl)cc1` [CLOFIBRATE], the half-maximal inhibitory concentration (IC50) result (in data set [1] (cho-k1); in data set [2]; in data set [3]; in data set [4]; at Adenosine receptor A3 (cho-k1); against Estrogen receptor beta) was “Not Active” each time.
As to `C[C@@H]1C[C@@H]([C@H](O)CC2CC(=O)NC(=O)C2)C(=O)[C@@H](C)C1` [CYCLOHEXIMIDE], the IC50 result (in data set [1] (cho-k1); in data set [2]; in data set [3]; in data set [4]; against Adenosine receptor A3 (cho-k1); on Estrogen receptor beta) was “Not Active” in each case.
In the case of `CN(C)c1ccc(C(=C2C=CC(=[N+](C)C)C=C2)c2ccc(N(C)C)cc2)cc1.[Cl-]` [GENTIAN VIOLET], the IC50 in data set [1] (read-out: IC50) is 1010 nM; in data set [2] it was “Not Active”; in data set [3] it was “Not Active”; in data set [4] it was “Not Active”; at Adenosine receptor A3 (read-out: IC50), 4170 nM; at Estrogen receptor beta, “Not Active”. The figures for the inhibitory constant (Ki) (in data set [1] (read-out: Ki); on Adenosine receptor A3 (read-out: Ki)) were 140 nM and 2350 nM, respectively.
With `NC(=O)NO` [HYDROXYUREA], the IC50 entry (in data set [1] (cho-k1); in data set [2]; in data set [3]; in data set [4]; at Adenosine receptor A3 (cho-k1); at Estrogen receptor beta) was “Not Active” in each case.
On to `CCn1cc(C(=O)O)c(=O)c2cc(F)c(N3CCN(C)CC3)cc21` [PEFLOXACIN], for which the IC50 result (in data set [1] (cho-k1); in data set [2]; in data set [3]; in data set [4]; at Adenosine receptor A3 (cho-k1); against Estrogen receptor beta) was “Not Active” throughout.
For `O=C(C1CCCCC1)N1CC(=O)N2CCc3ccccc3C2C1` (centres undefined) [PRAZIQUANTEL], the half-inhibitory concentration (IC50) result (in data set [1] (cho-k1); in data set [2]; in data set [3]; in data set [4]; against Adenosine receptor A3 (cho-k1); on Cytochrome P450 3A4) was “Not Active” throughout. Besides, on Cytochrome P450 3A4, the Ki entry is on record as “Not Active”.
With `CCN(CC)CCOC(=O)c1ccc(N)cc1` [PROCAINE], the IC50 entry (in data set [1] (cho-k1); in data set [2]; in data set [3]; in data set [4]; against Adenosine receptor A3 (cho-k1); against Cytochrome P450 3A4) was “Not Active” throughout. Further, the inhibition constant (Ki) result on Cytochrome P450 3A4 is given as “Not Active”.
In the case of `CCCN(CCC)C(=O)C(CCC(=O)O)NC(=O)c1ccccc1` (centres undefined) [PROGLUMIDE], the IC50 result (in data set [1] (cho-k1); in data set [2]; in data set [3]; in data set [4]; at Adenosine receptor A3 (cho-k1); on Cytochrome P450 3A4) was “Not Active” throughout. The Ki entry at Cytochrome P450 3A4 is “Not Active”.
In the case of `OC(CCN1CCCCC1)(c1ccccc1)C1CCCCC1` (centres undefined) [TRIHEXYPHENIDYL], the IC50 entry (in data set [2]; in data set [3]; in data set [4]; against Adenosine receptor A3 (cho-k1); on Cytochrome P450 3A4; against Estrogen receptor beta) was “Not Active” each time. Moreover, the Ki result at Cytochrome P450 3A4 was “Not Active”.
As to `Cc1cc2cc3c(C)cc(=O)oc3c(C)c2o1` [TRIOXSALEN], the IC50 result (in data set [1] (cho-k1); in data set [2]; in data set [3]; in data set [4]; against Adenosine receptor A3 (cho-k1); against Cytochrome P450 3A4) was “Not Active” throughout. On Cytochrome P450 3A4, the Ki entry is listed as “Not Active”.
Take `CCCC(CCC)C(=O)O` [VALPROIC ACID]: the concentration for half-maximal inhibition (IC50) entry (in data set [1] (cho-k1); in data set [2]; in data set [3]; in data set [4]; on Adenosine receptor A3 (cho-k1); against Cytochrome P450 3A4) was “Not Active” throughout. The Ki entry on Cytochrome P450 3A4 is “Not Active”.
